Results from PubChem BioAssay AID266 (DTP/NCI, 2004).
Where “and” joins values, the source holds several entries; their conditions need not be identical. Equal values may be shown once. Inconclusive results are not listed.

Test system: Nude mice, LX-1 lung xenograft intrarenal, tumor weight T/C
Assay: NCI In Vivo Anticancer Drug Screen. Data for tumor model Human Lung LX-1 Xenograft (intrarenal inoculation) in NU/NU BALB/C (nude) mice
Conditions: endpoint: mean tumor weight change, higher = larger tumour
Experimental: The antitumor activity of compounds was measured in mice bearing transplantable tumors. Survival or tumor size were measured and the results are expressed as the measurement made in the treated group (T) divided by the measurement made in the vehicle treated control group (C). The tumor model used in this assay is Human Lung LX-1 Xenograft (intrarenal inoculation) in NU/NU BALB/C (nude) mice

[1] = dose: 150.0 mg/kg/injection, schedule: Q04DX003 (sc), vehicle: Klucel (hydroxypropylcellulose) (HPC)
[2] = dose: 300.0 mg/kg/injection, schedule: Q04DX003 (sc), vehicle: Klucel (hydroxypropylcellulose) (HPC)
[3] = dose: 600.0 mg/kg/injection, schedule: Q04DX003 (sc), vehicle: Klucel (hydroxypropylcellulose) (HPC)

What does the source list for `N#CN=[N+]([O-])c1ccc(C(=O)O)cc1`?
T/C (dose: 11.25 mg/kg/injection, schedule: Q04DX003 (sc), vehicle: Klucel (hydroxypropylcellulose) (HPC)): 66 % of control; T/C (dose: 22.5 mg/kg/injection, schedule: Q04DX003 (sc), vehicle: Klucel (hydroxypropylcellulose) (HPC)): 65 % of control; T/C (dose: 45.0 mg/kg/injection, schedule: Q04DX003 (sc), vehicle: Klucel (hydroxypropylcellulose) (HPC)): 47 % of control

What does the source list for `C/C(=N\NC(=S)N1CCN(c2ccccn2)CC1)c1ccccn1`?
T/C (dose: 37.5 mg/kg/injection, schedule: Q04DX003 (sc), vehicle: water): 106 % of control; T/C (dose: 75.0 mg/kg/injection, schedule: Q04DX003 (sc), vehicle: water): 102 % of control

Which results are given for `CC(CN1CC(=O)NC(=O)C1)N1CC(=O)NC(=O)C1` (configuration not stated)?
T/C [1]: 88 % of control; T/C [2]: 94 % of control; T/C [3]: 45 % of control

For `CN(C)P(=O)(Oc1ccccc1)N(C)C`, which T/C (dose: 150.0 mg/kg/injection, schedule: Q04DX003 (sc), vehicle: saline with Tween-80) is on record?
The T/C was 99 % of control.

What about the T/C (dose: 300.0 mg/kg/injection, schedule: Q04DX003 (sc), vehicle: saline with Tween-80) of the same compound?
Its T/C is 111 % of control.

What about the T/C (dose: 600.0 mg/kg/injection, schedule: Q04DX003 (sc), vehicle: saline with Tween-80) of the same compound?
Its T/C is 72 % of control.

And the T/C (dose: 1200.0 mg/kg/injection, schedule: Q04DX003 (sc), vehicle: saline with Tween-80)?
The T/C was 83 % of control.

For `COc1ccc(N=N/N=c2\sc3cc(OC)ccc3n2C)cc1`, which T/C (dose: 30.0 mg/kg/injection, schedule: Q04DX003 (ip), vehicle: saline with Tween-80) is on record?
The T/C was 117 % of control.

What about the T/C (dose: 60.0 mg/kg/injection, schedule: Q04DX003 (ip), vehicle: saline with Tween-80) of the same compound?
Its T/C is 94 % of control.

And the T/C (dose: 75.0 mg/kg/injection, schedule: Q04DX003 (ip), vehicle: saline with Tween-80)?
Its T/C is 99 % of control.

And the T/C (dose: 120.0 mg/kg/injection, schedule: Q04DX003 (ip), vehicle: saline with Tween-80)?
The T/C was 55 % of control.

What about the T/C (dose: 150.0 mg/kg/injection, schedule: Q04DX003 (ip), vehicle: saline with Tween-80) of the same compound?
The T/C was 80 % of control.

And the T/C (dose: 240.0 mg/kg/injection, schedule: Q04DX003 (ip), vehicle: saline with Tween-80)?
Its T/C is 67 % of control.

What about the T/C (dose: 300.0 mg/kg/injection, schedule: Q04DX003 (ip), vehicle: saline with Tween-80) of the same compound?
Its T/C is 50 % of control.

Which T/C (dose: 300.0 mg/kg/injection, schedule: Q04DX003 (sc), vehicle: saline + alcohol) does the source give for `C=CC(C)NC(=S)NNC(=S)NC` (configuration not stated) here?
The T/C was 115 % of control.

And the T/C (dose: 600.0 mg/kg/injection, schedule: Q04DX003 (sc), vehicle: saline + alcohol)?
The T/C was 87 % of control.

What about the T/C (dose: 1200.0 mg/kg/injection, schedule: Q04DX003 (sc), vehicle: saline + alcohol) of the same compound?
The T/C was 87 % of control.

And the T/C (dose: 2400.0 mg/kg/injection, schedule: Q04DX003 (sc), vehicle: saline + alcohol)?
Its T/C is 78 % of control.

Which results are given for `NNC(=S)N/N=C/c1ccccn1`?
T/C (dose: 15.0 mg/kg/injection, schedule: Q04DX003 (sc), vehicle: saline with Tween-80): 78 % of control; T/C (dose: 30.0 mg/kg/injection, schedule: Q04DX003 (sc), vehicle: saline with Tween-80): 95 % of control; T/C (dose: 60.0 mg/kg/injection, schedule: Q04DX003 (sc), vehicle: saline with Tween-80): 94 % of control

Which results are given for `c1cc2n(n1)CCN2`?
T/C (dose: 50.0 mg/kg/injection, schedule: Q01DX010 (ip), vehicle: saline): 107 % of control; T/C (dose: 50.0 mg/kg/injection, schedule: Q01DX010 (sc), vehicle: saline): 26 % of control; T/C (dose: 100.0 mg/kg/injection, schedule: Q01DX010 (ip), vehicle: saline): 70 % of control; T/C (dose: 100.0 mg/kg/injection, schedule: Q01DX010 (sc), vehicle: saline): 12 % of control; T/C (dose: 166.66 mg/kg/injection, schedule: Q04DX003 (sc), vehicle: saline): 170 % of control; T/C (dose: 200.0 mg/kg/injection, schedule: Q01DX010 (sc), vehicle: saline): -33 % of control; T/C (dose: 333.33 mg/kg/injection, schedule: Q04DX003 (sc), vehicle: saline): 150 % of control; T/C (dose: 666.65 mg/kg/injection, schedule: Q04DX003 (sc), vehicle: saline): 59 % of control

For `N#Cc1cn(C2OC(CO)C(O)C2O)c2ncnc(N)c12` (configuration not stated), which T/C (dose: 1.0 mg/kg/injection, schedule: Q01DX010 (sc), vehicle: saline) is on record?
Its T/C is 26 % of control.

What about the T/C (dose: 2.0 mg/kg/injection, schedule: Q01DX010 (sc), vehicle: saline) of the same compound?
Its T/C is 77 % of control.

What does the source list for `O=CC(S)CO` (configuration not stated)?
T/C (dose: 100.0 mg/kg/injection, schedule: Q04DX003 (sc), vehicle: suspension in saline): 94 % of control; T/C (dose: 200.0 mg/kg/injection, schedule: Q04DX003 (sc), vehicle: suspension in saline): 94 % of control; T/C (dose: 400.0 mg/kg/injection, schedule: Q04DX003 (sc), vehicle: suspension in saline): 84 % of control

How did the T/C [1] turn out when `COc1ccc2c(ccc3oc([N+](=O)[O-])cc32)c1` was run?
Its T/C is 88 % of control.

What about the T/C [2] of the same compound?
Its T/C is 96 % of control.

What about the T/C [3] of the same compound?
The T/C was 86 % of control.

`COc1ccc(OC)c(/C=C/c2ccnc3ccccc23)c1` was tested. Which T/C (dose: 50.0 mg/kg/injection, schedule: Q01DX010 (sc), vehicle: saline with Tween-80) did it give?
The T/C was 65 % of control.

And the T/C (dose: 100.0 mg/kg/injection, schedule: Q01DX010 (sc), vehicle: saline with Tween-80)?
The T/C was 152 % of control.

And the T/C (dose: 200.0 mg/kg/injection, schedule: Q01DX010 (sc), vehicle: saline with Tween-80)?
The T/C was 251 % of control.

What about the T/C (dose: 400.0 mg/kg/injection, schedule: Q01DX010 (sc), vehicle: saline with Tween-80) of the same compound?
The T/C was 121 % of control.

For `COCC(O)Cn1ccnc1[N+](=O)[O-]` (configuration not stated), which T/C (dose: 2400.0 mg/kg/injection, schedule: Q04DX003 (sc), vehicle: suspension in saline) is on record?
The T/C was 104 % of control.

What does the source list for `CCCCCc1cc(/C=C2/N=C(c3ccc[nH]3)C=C2OC)[nH]c1C`?
T/C (dose: 8.0 mg/kg/injection, schedule: Q04DX003 (sc), vehicle: saline with Tween-80): 73 % of control; T/C (dose: 16.0 mg/kg/injection, schedule: Q04DX003 (sc), vehicle: saline with Tween-80): 54 % of control; T/C (dose: 32.0 mg/kg/injection, schedule: Q04DX003 (sc), vehicle: saline with Tween-80): 59 % of control; T/C (dose: 64.0 mg/kg/injection, schedule: Q04DX003 (sc), vehicle: saline with Tween-80): 67 % of control

Which T/C (dose: 150.0 mg/kg/injection, schedule: Q04DX003 (sc), vehicle: saline) does the source give for `O=C1CCC(=O)N1CO` here?
The T/C was 95 % of control.

And the T/C (dose: 300.0 mg/kg/injection, schedule: Q04DX003 (sc), vehicle: saline)?
The T/C was 93 % of control.

And the T/C (dose: 600.0 mg/kg/injection, schedule: Q04DX003 (sc), vehicle: saline)?
The T/C was 82 % of control.

And the T/C (dose: 1200.0 mg/kg/injection, schedule: Q04DX003 (sc), vehicle: saline)?
Its T/C is 63 % of control.

Which T/C (dose: 100.0 mg/kg/injection, schedule: Q04DX003 (sc), vehicle: saline with Tween-80) does the source give for `O=C1N=C(Oc2ccccc2)SC1=O` here?
The T/C was 87 % of control.

And the T/C (dose: 200.0 mg/kg/injection, schedule: Q04DX003 (sc), vehicle: saline with Tween-80)?
Its T/C is 93 % of control.

And the T/C (dose: 400.0 mg/kg/injection, schedule: Q04DX003 (sc), vehicle: saline with Tween-80)?
The T/C was 54 % of control.

What does the source list for `CN(Cc1cnc2nc(N)nc(N)c2n1)c1ccc(C(=O)N[C@@H](CCC(=O)O)C(=O)O)cc1`?
T/C (dose: 1.0 mg/kg/injection, schedule: Q01DX010 (sc), vehicle: sodium bicarbonate): 72 % of control and 84 % of control; T/C (dose: 4.0 mg/kg/injection, schedule: Q01DX010 (sc), vehicle: sodium bicarbonate): 47 % of control

Which T/C (dose: 9.38 mg/kg/injection, schedule: Q04DX003 (sc), vehicle: saline with Tween-80) does the source give for `Nc1ccc(Cn2ccc3c4c(N)nc(N)nc4ccc32)cc1` here?
The T/C was 68 % of control.

What about the T/C (dose: 18.75 mg/kg/injection, schedule: Q04DX003 (sc), vehicle: saline with Tween-80) of the same compound?
Its T/C is 51 % of control.

What about the T/C (dose: 37.5 mg/kg/injection, schedule: Q04DX003 (sc), vehicle: saline with Tween-80) of the same compound?
Its T/C is 52 % of control.

`CCC1=C[C@H]2CN(CCc3c([nH]c4ccccc34)[C@@](C(=O)OC)(c3cc4c(cc3OC)N(C)[C@H]3[C@@](O)(C(=O)NC)[C@H](OC(C)=O)[C@]5(CC)C=CCN6CC[C@]43[C@@H]65)C2)C1` was tested. Which T/C (dose: 1.0 mg/kg/injection, schedule: Q04DX003 (sc), vehicle: water) did it give?
The T/C was 30 % of control.

What does the source list for `CC(=O)OC1C(O)C(C)OC(OC2C(OC(=O)C3CCC4C(C3)OC3(CC(OC(=O)/C=C/c5ccccc5)C(C)CO3)C43CO3)OC(C)C(O)C2OC(C)=O)C1O` (configuration not stated)?
T/C (dose: 37.5 mg/kg/injection, schedule: Q04DX003 (sc), vehicle: distilled water + Tween-80): 121 % of control; T/C (dose: 75.0 mg/kg/injection, schedule: Q04DX003 (sc), vehicle: distilled water + Tween-80): 63 % of control

For `Nc1nc(Br)nc2c1ncn2C1CC(O)C(CO)O1` (configuration not stated), which T/C (dose: 7.5 mg/kg/injection, schedule: Q03DX003 (ip), vehicle: saline) is on record?
Its T/C is 66 % of control.

And the T/C (dose: 15.0 mg/kg/injection, schedule: Q03DX003 (ip), vehicle: saline)?
Its T/C is 77 % of control.

What about the T/C (dose: 30.0 mg/kg/injection, schedule: Q03DX003 (ip), vehicle: saline) of the same compound?
Its T/C is 72 % of control.

And the T/C (dose: 60.0 mg/kg/injection, schedule: Q03DX003 (ip), vehicle: saline)?
The T/C was 59 % of control.

And the T/C (dose: 120.0 mg/kg/injection, schedule: Q03DX003 (ip), vehicle: saline)?
Its T/C is 74 % of control.

For `S=P(N1CC1)(N1CC1)N1CC1`, which T/C (dose: 4.0 mg/kg/injection, schedule: Q01DX010 (sc), vehicle: saline) is on record?
Its T/C is 77 % of control.
